This note sets out measurements from PubChem BioAssay AID1996.

≈ marks a conversion by molar mass, not a printed value.

The conditions of this data set: buffer; pH 7.4; 200.0 µM.
For the compound `Cc1ccc2nc(-c3ccc(O)cc3)oc2c1`, the kinetic solubility worked out at 1.7 µg/mL (≈ 7.55 µM). Compound `CCOc1cccc(C(=O)Nc2cc(C)ccc2NC(=O)c2ccco2)c1` registered a kinetic solubility of 22 µg/mL (≈ 60.4 µM). For the compound `Cc1ccc(C)n1-c1ccc(-c2ccnc(N)n2)cc1`, the kinetic solubility came to 22.5 µg/mL (≈ 85.1 µM). The value for `CC1(CO)COC2(OC1)C(=O)Nc1ccccc12` (stereo not given) was above 37.4 µg/mL; that for `C=CCC(=O)N1CCCC(CO)(Cc2ccc(F)cc2F)C1` (stereo not given) was 41.8 µg/mL (≈ 135 µM); that for `O=C(COC(=O)CCc1nc2ccccc2c(=O)[nH]1)Nc1ccccc1` was above 52.7 µg/mL.

For the compound `CCN1CSC(=S)N(Cc2ccc(OC)cc2)C1`, the kinetic solubility is 38.6 µg/mL (≈ 137 µM). To `COC(=O)c1cn(CC(=O)Nc2ccc(OC)cc2)c2ccccc12` belongs below 0.4 µg/mL; to `COc1ccc(-c2noc(CCC(=O)NCC3CCCO3)n2)cc1` (stereo not given), above 49.7 µg/mL. To `O=C(COC(=O)Cc1ccsc1)Nc1cccc(F)c1` belongs above 44 µg/mL; to `Cc1ccc(S(=O)(=O)N2CCN(c3ncnc4sccc34)CC2)cc1`, 17.5 µg/mL (≈ 46.7 µM). The compound `Clc1ccc(-c2nc(-c3cnccn3)no2)cc1` had a kinetic solubility of 3.2 µg/mL (≈ 12.4 µM). To `Cl.NCCc1c[nH]c2ccc(O)cc12` belongs above 31.9 µg/mL; to `CC(C)N=C(NS(=O)(=O)c1cccs1)c1ccccc1`, above 46.3 µg/mL; to `CC(=O)NC(C(=O)N1CCC(c2nc3ccccc3s2)CC1)C(C)C` (stereo not given), 51.1 µg/mL (≈ 142 µM). Compound `COc1cc(CCN)ccc1O.Cl` returned a kinetic solubility above 30.6 µg/mL. In turn, `COCCNC(=S)N1CCN(Cc2cccc(OC)c2)CC1` returned a solubility (kinetic) of 42.5 µg/mL (≈ 131 µM). To `O=C(Nc1cccc([N+](=O)[O-])c1)N1CCN(c2ccccc2)CC1` belongs 3.6 µg/mL (≈ 11 µM); to `Cn1c(=O)n(CCc2ccccc2)c2ccccc21`, 29.2 µg/mL (≈ 116 µM); to `Cc1cccn2c(=O)c(C=O)c(N3CC(C)OC(C)C3)nc12` (stereo not given), above 45.2 µg/mL.

Regarding `CC(=O)Nc1ccc(S(=O)(=O)N(C)CC(=O)NC2CCCCCCC2)cc1`, the kinetic solubility was above 59.3 µg/mL.

Compound `O=C1Nc2ccccc2/C1=C\C(=O)c1ccccc1` had a kinetic solubility of 5.1 µg/mL (≈ 20.5 µM). To `CN(C)C(=O)C(OC(=O)c1ccc2ccccc2n1)c1ccccc1` (stereo not given) belongs above 50.2 µg/mL; to `N#Cc1ccccc1OCC(=O)OCC(=O)N1CCCC1`, above 43.2 µg/mL. The value for `CCN(CC)CCNC(=O)/C(=N\O)c1ccccn1` was above 39.6 µg/mL.

In turn, `CCN(c1ccccc1)S(=O)(=O)c1ccc2c(c1)OCCO2` came in with a kinetic solubility of 26.3 µg/mL (≈ 82.3 µM).

`CC(=O)Nc1ccc(C(=O)COC(=O)C2CC2C)c(F)c1` (stereo not given) came in with a solubility (kinetic) above 44 µg/mL. The value for `O=C(CNC(=O)C1CCCCC1)Nc1ccc(F)c(Cl)c1` was 8.2 µg/mL (≈ 26.2 µM); that for `O=S(=O)(c1cccs1)N1CCN(c2ccccc2)CC1` was 1.4 µg/mL (≈ 4.54 µM); that for `CCNc1nc(-c2cc(C)n(Cc3ccco3)c2C)cs1` was 5.2 µg/mL (≈ 17.3 µM).

Turning to `O=C(NC12CC3CC(CC(C3)C1)C2)c1ccc([N+](=O)[O-])o1`, the kinetic solubility worked out at 34.9 µg/mL (≈ 120 µM). `Cc1cc(-n2c(C)cc(C(=O)CSc3ccccn3)c2C)no1` gave a kinetic solubility of 33.4 µg/mL (≈ 102 µM). Compound `COC(=O)c1ccc(C(=O)OC)c(NC(=O)C(C)(C)C)c1` yielded a solubility (kinetic) of 3.9 µg/mL (≈ 13.3 µM).

Regarding `Nc1ccc(-c2cc3ccccc3oc2=O)cc1`, the solubility (kinetic) worked out at 17.9 µg/mL (≈ 75.4 µM). Compound `Cc1ccc(C(=O)NCCN2CCOCC2)cc1[N+](=O)[O-]` came in with a kinetic solubility above 44 µg/mL. The value for `Cc1cccc(C)c1NC(=O)c1cnccn1` was 24.8 µg/mL (≈ 109 µM); that for `CC(C)(C)c1ccc(S(=O)(=O)NCc2ccccn2)cc1` was 44.1 µg/mL (≈ 145 µM). The value for `O=C(NCc1ccc(F)cc1)c1cnc(Cl)c(Cl)c1` was 6.9 µg/mL (≈ 23.1 µM). To `Cc1cccc(NC(=O)CSc2n[nH]c(-c3cccnc3)n2)c1` belongs above 48.8 µg/mL; to `O=C(c1cccc2c1-c1ccccc1C2)N1CCCCC1`, above 41.6 µg/mL; to `Cn1c(=O)c2c(nc(SCc3ccccc3F)n2C)n(C)c1=O`, 6.2 µg/mL (≈ 18.5 µM). The compound `COc1ccc(-c2csc3ncnc(Cl)c23)cc1` registered a kinetic solubility of 0.6 µg/mL (≈ 2.17 µM). To `O=C(NCCc1ccccc1)c1coc(=O)c(Br)c1` belongs 9.8 µg/mL (≈ 30.4 µM); to `Cl.Nc1nc2ccccc2n1C(=O)c1cccs1`, 2 µg/mL; to `Cn1ccnc1SC(C(=O)O)c1ccccc1` (stereo not given), above 37.2 µg/mL.

`O=C(NCC(=O)N1CCN(C/C=C/c2ccccc2)CC1)c1ccc(Br)cc1` gave a solubility (kinetic) of 15.4 µg/mL (≈ 34.8 µM). Compound `COc1ccc(Nc2ncnc3c2c(C)c(C)n3CCO)cc1` gave a kinetic solubility above 46.9 µg/mL. The value for `Cc1cc(NC(=O)c2ccc3[nH]c(C)c(C)c3c2)ccn1` was 37.6 µg/mL (≈ 135 µM); that for `O=S(=O)(NCCCN1CCOCC1)c1ccc(Cl)s1` was 48.4 µg/mL (≈ 149 µM); that for `Cc1ccc(Nc2cc(C)c(O)c(C)c2)cc1` was 10.5 µg/mL (≈ 46.2 µM). To `Cc1cc(NC(=O)COC(=O)C2CCC(=O)N2)c([N+](=O)[O-])cc1C` (stereo not given) belongs above 50.3 µg/mL. The value for `COc1cccc(NC(=O)c2ccc3nsnc3c2)c1` was 24.5 µg/mL (≈ 85.9 µM); that for `O=C(/C=C/c1ccccc1[N+](=O)[O-])c1ccc(F)cc1` was 4.5 µg/mL (≈ 16.6 µM). The compound `N#Cc1cccc(NC(=O)CN2CCCCCC2)c1` gave a kinetic solubility above 38.6 µg/mL. The value for `COc1cccc(NC(=O)C2C(c3ccccc3)C2(Cl)Cl)c1` (stereo not given) was 7 µg/mL (≈ 20.8 µM). The value for `Cc1[nH]c2ccccc2c1C(=O)C(C)OC(=O)C1CCC1` (stereo not given) was above 42.8 µg/mL; that for `CC(C)CC(=O)N1CCN(Cc2cccc([N+](=O)[O-])c2)CC1` was 33.2 µg/mL (≈ 109 µM); that for `CS(=O)(=O)c1ccc2nc(NC(=O)Nc3ccccc3F)sc2c1` was 0.8 µg/mL (≈ 2.19 µM). Turning to `C=CCNC(=S)Nc1ccc2cn[nH]c2c1`, the kinetic solubility was above 34.8 µg/mL. `O=[N+]([O-])c1ccc(N2CCN(Cc3ccc4c(c3)OCO4)CC2)nc1` had a kinetic solubility of 7 µg/mL (≈ 20.4 µM).

Turning to `Cc1cccc(Nc2nc(-c3ccc(F)c(C)c3)cs2)n1`, the solubility (kinetic) is below 0.2 µg/mL. The value for `Cc1cc(C)c(NC(N)=S)c(C)c1` was above 29.1 µg/mL; that for `Cc1ccn2c(NC3CCCC3)c(-c3cccs3)nc2c1.Cl` was 14.7 µg/mL; that for `CCOC(=O)Nc1ccc2c(c1)nc1n2CCN(CCOC)C1` was above 47.8 µg/mL. To `CC(C)(C)NS(=O)(=O)c1ccc(/C=C/C(=O)O)cc1` belongs above 42.5 µg/mL. To `COc1ccccc1N(CC1CO1)S(=O)(=O)c1ccccc1` (stereo not given) belongs above 47.9 µg/mL; to `Cc1cc(=O)[nH]c(SCc2ccc(Cl)cc2)n1`, 13.2 µg/mL (≈ 49.5 µM). The compound `CN(C)/C(=N\S(=O)(=O)c1ccccc1)c1ccc(Cl)cc1` displayed a solubility (kinetic) above 48.4 µg/mL. Turning to `Cc1c(Cl)cccc1NC(=O)c1ccco1`, the solubility (kinetic) is above 35.4 µg/mL. To `CC(C)(C)C(=O)C1=C(O)C(=O)N(Cc2ccccc2)C1c1ccccc1F` (stereo not given) belongs above 55.1 µg/mL; to `N/C(=N\OC(=O)c1ccc(Cl)cc1[N+](=O)[O-])c1ccccn1`, 3 µg/mL (≈ 9.35 µM). To `Cc1cc(C(=O)N(CCC#N)Cc2cccs2)no1` belongs above 41.3 µg/mL; to `Cc1noc(C)c1CN1C(=O)c2ccc([N+](=O)[O-])cc2C1=O`, above 45.2 µg/mL.

Turning to `COc1ccc(NC(=O)c2coc(C)c2)cc1`, the solubility (kinetic) amounted to 31.9 µg/mL (≈ 138 µM). The value for `CC(=O)NCCc1ccc(C(=O)Cn2cnc3ccccc3c2=O)cc1` was above 52.4 µg/mL.

On to `CCc1nc2ccc(N3CCN(C)CC3)cc2nc1CC`, for which the solubility (kinetic) worked out at 35.2 µg/mL (≈ 124 µM).

As to `CNc1nc(Cl)c(SC)c(NCc2ccc(F)cc2)n1`, the solubility (kinetic) turned out to be 0.6 µg/mL (≈ 1.92 µM).

Compound `CCCC(=O)Nc1cc2c3c(c1)C(C)C(=O)N3CCC2` (stereo not given) showed a kinetic solubility of 38 µg/mL (≈ 140 µM). The compound `Cc1ncc([N+](=O)[O-])n1CC(=O)Nc1cccc(C(F)(F)F)c1` yielded a solubility (kinetic) of 6 µg/mL (≈ 18.3 µM).

`COc1cccc2[nH]c3c(=O)n(CCCN4CCOCC4)cnc3c12` gave a kinetic solubility above 51.4 µg/mL. `COc1cc(C(=O)Nc2ccccc2C(=O)Nc2ccccn2)cc(OC)c1OC` displayed a solubility (kinetic) of 4.6 µg/mL (≈ 11.3 µM).

With `Cc1cccc(CSc2nc3c(c(-c4cccs4)c2C#N)CN(C)CC3)c1`, the solubility (kinetic) was 5.8 µg/mL (≈ 14.8 µM). To `CCN(C(=O)COC(=O)c1ccc([N+](=O)[O-])o1)C1CCCCC1` belongs above 48.6 µg/mL; to `S=C(NCCCCc1ccccc1)NCc1ccccc1`, 7 µg/mL (≈ 23.5 µM). The value for `O=C(COc1ccccc1)NC1CCCCCCC1` was 36.2 µg/mL (≈ 139 µM); that for `Fc1ccc(NC(=S)Nc2ccc3nccnc3c2)cc1` was 41.9 µg/mL (≈ 140 µM); that for `c1ccc2[nH]c(CCCc3nc4ccccc4[nH]3)nc2c1` was 29.7 µg/mL (≈ 107 µM). The value for `CC(NC(=O)c1ccco1)c1ccc2c(c1)OCO2` (stereo not given) was above 38.9 µg/mL. Consider `COc1cccc(Nc2nc3ccc(OC)cc3s2)c1`, for which the kinetic solubility was 2.8 µg/mL (≈ 9.78 µM). To `COc1cc([N+](=O)[O-])ccc1NC(=S)N1CCN(c2ccccn2)CC1` belongs 12.2 µg/mL (≈ 32.7 µM); to `CN1C(=O)NC(c2cccc(F)c2)C2=C1CC(C)(C)CC2=O` (stereo not given), above 45.4 µg/mL; to `Cc1cccc(NC(=S)NCc2ccc(F)cc2)c1C`, 35.2 µg/mL (≈ 122 µM).

In turn, `O=C(COC(=O)/C=C/c1ccc(F)cc1)NCC1CCCO1` (stereo not given) gave a solubility (kinetic) above 46.1 µg/mL. The value for `Cc1ccc(NC(=O)C[n+]2cc(-c3ccccc3)n3c2CCC3)c(C)c1.[Cl-]` was 55.4 µg/mL; that for `COc1ccc(C(=O)OCC(=O)c2ccc[nH]2)cc1` was 20.4 µg/mL (≈ 78.7 µM); that for `COc1ccc(NC(=O)Nc2ccccc2SC)c(OC)c1` was 0.7 µg/mL (≈ 2.2 µM). The compound `COc1ccc(-c2nc(C(=O)O)cs2)cc1OC` displayed a kinetic solubility above 39.8 µg/mL. To `Br.Cn1ccnc1SCC(=O)c1ccc(O)cc1` belongs above 49.4 µg/mL; to `Cc1ccc(S(=O)(=O)CCC(=O)OC(C)c2nnc(-c3cccs3)o2)cc1` (stereo not given), above 61 µg/mL; to `Cc1ccc(NC(=O)CCN2CCC(C)CC2)cc1.Cl`, above 44.5 µg/mL. The value for `CCC(=NCc1cc(OC)cc(OC)c1)c1c(O)[nH]c(=O)[nH]c1=O` was 12.5 µg/mL (≈ 37.5 µM); that for `CCc1ccccc1N1CC(C(=O)N2Cc3ccccc3CC2C(N)=O)CC1=O` (stereo not given) was above 58.7 µg/mL; that for `Cc1ccc2nc(C3CCCCC3)[nH]c2c1` was above 32.1 µg/mL. `Cc1cnc(C(=O)NC2CCSc3ccccc32)cn1` (stereo not given) returned a solubility (kinetic) of 26.2 µg/mL (≈ 91.8 µM). The value for `NC1CCN(c2c(F)cc3c(=O)c(C(=O)O)cn(C4CC4)c3c2Cl)C1` (stereo not given) was above 54.9 µg/mL.
